Like-named read-outs stand apart in the source and are kept apart here.
Test system: fruit of grape in a farm field
Protocol: To the fruit of grape in a farm field before harvest, potassium hydrogen carbonate diluted with water to a concentration of 10 g/L (Table 17) or 20 g/L (Table 18) was applied three times in total at intervals of 7 days. The grape was harvested 21 days after the first application, and the masses of amino acids contained in each of the fruit of grape treated with potassium hydrogen carbonate and untreated fruit of grape were measured. In addition, the degree of increase in the concentration of each amino acid in the grape treated with potassium hydrogen carbonate in comparison with the concentration of the amino acid in the untreated grape was determined as a ratio of “the concentration of the amino acid in the grape treated with potassium hydrogen carbonate/the concentration of the amino acid in the untreated grape.” Moreover, the sugar contents in the grape treated with potassium hydrogen carbonate and the untreated grape were also measured, and the ratio (the sugar content in the grape treated with potassium hydrogen carbonate/the sugar content in the untreated grape) was determined.
Arg: arginine, GluNH2: glutamine, Orn: ornithine, Ala: alanine, NH3: ammonia, Cit: citrulline, AspNH2: asparagine, a-ABA: α-amino-n-butyric acid, Glu: glutamic acid, Asp: aspartic acid, Thr: threonine, Ser: serine, Lys: lysine, His: histidine, Gly: glycine, Phe: phenylalanine, Sar: sarcosine, Val: valine, Cys: cysteine, b-AiBA: β-aminoisobutyric acid, PEA: phosphoethanolamine, a-AAA: α-aminoadipic acid, EOHNH2: ethanolamine, b-Ala: β-alanine, Leu: leucine, g-ABA: […], Ile: isoleucine, Met: methionine, Urea: urea, Trp: tryptophan, Tyr: tyrosine, and Cysthi: cystathionine.

O=C([O-])O.[K+] [Potassium hydrogen carbonate, potassium hydrogen carbonate]
Ala, Ratio treated/untreated (10 g/L x3): 5.229 | Ala, Treated Mass (10 g/L x3): 601.952 ng | Arg, Ratio treated/untreated (10 g/L x3): 10.658 | Asp, Ratio treated/untreated (10 g/L x3): 2.694 | Asp, Treated Mass (10 g/L x3): 89.293 ng | AspNH2, Ratio treated/untreated (10 g/L x3): 3.987 | AspNH2, Treated Mass (10 g/L x3): 14.746 ng | Cit, Ratio treated/untreated (10 g/L x3): 4.673 | Cit, Treated Mass (10 g/L x3): 11.464 ng | Cys, Ratio treated/untreated (10 g/L x3): 1.154 | Cys, Treated Mass (10 g/L x3): 117.021 ng | Cysthi, Ratio treated/untreated (10 g/L x3): 0.457 | Cysthi, Treated Mass (10 g/L x3): 1.016 ng | EOHNH2, Ratio treated/untreated (10 g/L x3): 1.02 | EOHNH2, Treated Mass (10 g/L x3): 53.297 ng | Glu, Ratio treated/untreated (10 g/L x3): 2.915 | Glu, Treated Mass (10 g/L x3): 1091.265 ng | GluNH2, Ratio treated/untreated (10 g/L x3): 7.046 | GluNH2, Treated Mass (10 g/L x3): 347.152 ng | Gly, Ratio treated/untreated (10 g/L x3): 1.553 | Gly, Treated Mass (10 g/L x3): 25.939 ng | His, Ratio treated/untreated (10 g/L x3): 1.615 | His, Treated Mass (10 g/L x3): 96.252 ng | Ile, Ratio treated/untreated (10 g/L x3): 0.875 | Ile, Treated Mass (10 g/L x3): 72.435 ng | Leu, Ratio treated/untreated (10 g/L x3): 1.012 | Leu, Treated Mass (10 g/L x3): 110.503 ng | Lys, Ratio treated/untreated (10 g/L x3): 1.768 | Lys, Treated Mass (10 g/L x3): 18.865 ng | Met, Ratio treated/untreated (10 g/L x3): 0.839 | Met, Treated Mass (10 g/L x3): 6.131 ng | NH3, Ratio treated/untreated (10 g/L x3): 4.713 | NH3, Treated Mass (10 g/L x3): 438.689 ng | Orn, Ratio treated/untreated (10 g/L x3): 6.692 | Orn, Treated Mass (10 g/L x3): 23.882 ng | PEA, Ratio treated/untreated (10 g/L x3): 1.032 | PEA, Treated Mass (10 g/L x3): 87.942 ng | Phe, Ratio treated/untreated (10 g/L x3): 1.527 | Phe, Treated Mass (10 g/L x3): 51.201 ng | Sar, Ratio treated/untreated (10 g/L x3): 1.271 | Sar, Treated Mass (10 g/L x3): 62.178 ng | Ser, Ratio treated/untreated (10 g/L x3): 2.585 | Ser, Treated Mass (10 g/L x3): 360.511 ng | Sugar content, Ratio treated/untreated (10 g/L x3): 1.06 | Sugar content, Treated (10 g/L x3): 22.6% | Thr, Ratio treated/untreated (10 g/L x3): 2.615 | Thr, Treated Mass (10 g/L x3): 342.259 ng | Total, Ratio treated/untreated (10 g/L x3): 2.203 | Total, Treated Mass (10 g/L x3): 1082.09 ng | Trp, Ratio treated/untreated (10 g/L x3): 0.641 | Trp, Treated Mass (10 g/L x3): 4.840 ng | Tyr, Ratio treated/untreated (10 g/L x3): 0.59 | Tyr, Treated Mass (10 g/L x3): 17.739 ng | Urea, Ratio treated/untreated (10 g/L x3): 0.757 | Urea, Treated Mass (10 g/L x3): 105.062 ng | Val, Ratio treated/untreated (10 g/L x3): 1.256 | Val, Treated Mass (10 g/L x3): 191.700 ng | a-AAA, Ratio treated/untreated (10 g/L x3): 1.031 | a-AAA, Treated Mass (10 g/L x3): 3.261 ng | a-ABA, Ratio treated/untreated (10 g/L x3): 3.246 | a-ABA, Treated Mass (10 g/L x3): 9.038 ng | b-AiBA, Ratio treated/untreated (10 g/L x3): 1.129 | b-AiBA, Treated Mass (10 g/L x3): 9.663 ng | b-Ala, Ratio treated/untreated (10 g/L x3): 1.019 | b-Ala, Treated Mass (10 g/L x3): 197.064 ng | g-ABA, Ratio treated/untreated (10 g/L x3): 0.891 | g-ABA, Treated Mass (10 g/L x3): 637.915 ng | Arg, Treated Mass (10 g/L x3, harvest 21 days after first application): 1383.991 ng | 1Mehis, Ratio treated/untreated (20 g/L x3): 1.167 | 1Mehis, Treated Mass (20 g/L x3): 1.184 ng | Ala, Ratio treated/untreated (20 g/L x3): 6.161 | Ala, Treated Mass (20 g/L x3): 709.236 ng | Arg, Ratio treated/untreated (20 g/L x3): 15.532 | Asp, Ratio treated/untreated (20 g/L x3): 2.614 | Asp, Treated Mass (20 g/L x3): 86.648 ng | AspNH2, Ratio treated/untreated (20 g/L x3): 7.214 | AspNH2, Treated Mass (20 g/L x3): 26.684 ng | Cit, Ratio treated/untreated (20 g/L x3): 12.285 | Cit, Treated Mass (20 g/L x3): 30.134 ng | Cys, Ratio treated/untreated (20 g/L x3): 1.41 | Cys, Treated Mass (20 g/L x3): 142.979 ng | Cysthi, Ratio treated/untreated (20 g/L x3): 0.3 | Cysthi, Treated Mass (20 g/L x3): 0.667 ng | EOHNH2, Ratio treated/untreated (20 g/L x3): 1.164 | EOHNH2, Treated Mass (20 g/L x3): 76.497 ng | Glu, Ratio treated/untreated (20 g/L x3): 1.85 | Glu, Treated Mass (20 g/L x3): 693.282 ng | GluNH2, Ratio treated/untreated (20 g/L x3): 11.395 | GluNH2, Treated Mass (20 g/L x3): 561.408 ng | Gly, Ratio treated/untreated (20 g/L x3): 1.847 | Gly, Treated Mass (20 g/L x3): 34.546 ng | His, Ratio treated/untreated (20 g/L x3): 2.312 | His, Treated Mass (20 g/L x3): 137.818 ng | Ile, Ratio treated/untreated (20 g/L x3): 1.149 | Ile, Treated Mass (20 g/L x3): 95.120 ng | Leu, Ratio treated/untreated (20 g/L x3): 1.387 | Leu, Treated Mass (20 g/L x3): 151.405 ng | Lys, Ratio treated/untreated (20 g/L x3): 2.452 | Lys, Treated Mass (20 g/L x3): 26.170 ng | Met, Ratio treated/untreated (20 g/L x3): 1.325 | Met, Treated Mass (20 g/L x3): 9.698 ng | NH3, Ratio treated/untreated (20 g/L x3): 4.845 | NH3, Treated Mass (20 g/L x3): 450.976 ng | Orn, Ratio treated/untreated (20 g/L x3): 11.668 | Orn, Treated Mass (20 g/L x3): 41.643 ng | PEA, Ratio treated/untreated (20 g/L x3): 1.644 | PEA, Treated Mass (20 g/L x3): 140.112 ng | Phe, Ratio treated/untreated (20 g/L x3): 1.961 | Phe, Treated Mass (20 g/L x3): 65.750 ng | Sar, Ratio treated/untreated (20 g/L x3): 1.5191 | Sar, Treated Mass (20 g/L x3): 74.309 ng | Ser, Ratio treated/untreated (20 g/L x3): 3.553 | Ser, Treated Mass (20 g/L x3): 495.547 ng | Sugar content, Ratio treated/untreated (20 g/L x3): 1.24 | Sugar content, Treated (20 g/L x3): 25.9% | Thr, Ratio treated/untreated (20 g/L x3): 3.174 | Thr, Treated Mass (20 g/L x3): 415.421 ng | Total, Ratio treated/untreated (20 g/L x3): 2.525 | Total, Treated Mass (20 g/L x3): 1239.923 ng | Trp, Ratio treated/untreated (20 g/L x3): 0.973 | Trp, Treated Mass (20 g/L x3): 7.348 ng | Tyr, Ratio treated/untreated (20 g/L x3): 0.994 | Tyr, Treated Mass (20 g/L x3): 29.898 ng | Val, Ratio treated/untreated (20 g/L x3): 1.587 | Val, Treated Mass (20 g/L x3): 242.163 ng | a-AAA, Ratio treated/untreated (20 g/L x3): 1.408 | a-AAA, Treated Mass (20 g/L x3): 4.352 ng | a-ABA, Ratio treated/untreated (20 g/L x3): 3.555 | a-ABA, Treated Mass (20 g/L x3): 9.898 ng | b-AiBA, Ratio treated/untreated (20 g/L x3): 1.12 | b-AiBA, Treated Mass (20 g/L x3): 9.588 ng | b-Ala, Ratio treated/untreated (20 g/L x3): 1.202 | b-Ala, Treated Mass (20 g/L x3): 232.373 ng | g-ABA, Ratio treated/untreated (20 g/L x3): 1.811 | g-ABA, Treated Mass (20 g/L x3): 1298.441 ng | Arg, Treated Mass (20 g/L x3, harvest 21 days after first application): 2018.4554 ng

Reference: patent publication US10080366B2, “Agent for increasing sugar content in fruit” (RIKEN, priority 2012, dated 2018)
